According to ChEMBL document CHEMBL1201862, “PubChem BioAssay data set” (2004):
The source made the active and inactive calls.

Legend:
[1] = molecular target: T1, Replicative DNA helicase DnaB (Mycobacterium tuberculosis, UniProt P9WMR3); assay: DnaB intein splicing inhibitors, dose response, biochemical, cell-free fluorescence (AID 449749); format: functional
T1 sequence (P9WMR3 whole entry): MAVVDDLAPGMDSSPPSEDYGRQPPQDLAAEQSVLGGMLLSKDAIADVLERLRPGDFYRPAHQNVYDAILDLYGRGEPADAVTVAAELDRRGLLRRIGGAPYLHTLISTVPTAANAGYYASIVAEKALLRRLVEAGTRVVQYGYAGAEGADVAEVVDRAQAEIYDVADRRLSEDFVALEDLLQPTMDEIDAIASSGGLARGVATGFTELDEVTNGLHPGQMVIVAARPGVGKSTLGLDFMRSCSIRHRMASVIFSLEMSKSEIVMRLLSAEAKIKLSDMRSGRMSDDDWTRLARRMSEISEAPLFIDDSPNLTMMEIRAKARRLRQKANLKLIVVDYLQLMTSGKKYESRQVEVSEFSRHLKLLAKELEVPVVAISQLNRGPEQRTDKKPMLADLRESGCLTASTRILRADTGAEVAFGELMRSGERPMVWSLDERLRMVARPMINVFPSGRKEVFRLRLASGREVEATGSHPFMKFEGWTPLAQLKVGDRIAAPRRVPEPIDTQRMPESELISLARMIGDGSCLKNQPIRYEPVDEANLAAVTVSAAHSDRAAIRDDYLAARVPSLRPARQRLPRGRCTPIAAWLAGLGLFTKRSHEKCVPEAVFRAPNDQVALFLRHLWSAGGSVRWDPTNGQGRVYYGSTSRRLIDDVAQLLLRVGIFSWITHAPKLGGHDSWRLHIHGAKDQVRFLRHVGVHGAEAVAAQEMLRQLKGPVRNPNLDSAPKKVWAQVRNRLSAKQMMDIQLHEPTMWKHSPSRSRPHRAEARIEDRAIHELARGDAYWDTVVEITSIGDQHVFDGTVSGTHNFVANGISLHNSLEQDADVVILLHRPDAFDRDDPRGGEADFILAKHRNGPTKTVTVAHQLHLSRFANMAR

Genome polyprotein = Genome polyprotein (dengue virus type 2, UniProt P29990); assay: flavivirus cap methylation enzyme inhibition – biochemical, confirmation dose response, primary screen (AID 588689); format: functional
Protein RecA = molecular target: T2, Protein RecA (Mycobacterium tuberculosis, UniProt P9WHJ3); assay: Fluorescence Cell-Free Homogeneous Dose Retest to Identify Inhibitors of RecA-Intein Splicing Activity. [Related pubchem assays (depositor defined):AID2097, AID2223, AID489010, AID492950]; format: functional
T2 sequence (P9WHJ3 whole entry): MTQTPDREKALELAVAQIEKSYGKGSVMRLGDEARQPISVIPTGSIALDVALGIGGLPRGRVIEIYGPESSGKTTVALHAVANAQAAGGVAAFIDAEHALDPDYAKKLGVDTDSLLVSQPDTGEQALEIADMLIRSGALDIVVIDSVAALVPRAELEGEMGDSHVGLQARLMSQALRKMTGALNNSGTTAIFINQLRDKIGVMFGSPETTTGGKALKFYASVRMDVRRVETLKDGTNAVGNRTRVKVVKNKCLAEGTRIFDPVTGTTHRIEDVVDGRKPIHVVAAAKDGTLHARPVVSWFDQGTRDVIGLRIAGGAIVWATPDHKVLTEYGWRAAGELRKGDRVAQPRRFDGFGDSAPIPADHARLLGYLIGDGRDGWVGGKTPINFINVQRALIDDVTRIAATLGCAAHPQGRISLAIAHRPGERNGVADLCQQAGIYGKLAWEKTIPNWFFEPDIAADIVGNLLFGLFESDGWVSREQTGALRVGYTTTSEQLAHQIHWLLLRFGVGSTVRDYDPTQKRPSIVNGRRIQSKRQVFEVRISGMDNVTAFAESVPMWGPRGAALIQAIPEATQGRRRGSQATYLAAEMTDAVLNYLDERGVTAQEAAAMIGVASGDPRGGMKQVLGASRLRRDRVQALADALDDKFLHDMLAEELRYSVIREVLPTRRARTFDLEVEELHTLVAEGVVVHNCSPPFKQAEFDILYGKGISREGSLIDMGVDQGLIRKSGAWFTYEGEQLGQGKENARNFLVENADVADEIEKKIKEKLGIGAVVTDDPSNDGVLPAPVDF

Cytochrome P450 2C9 = Cytochrome P450 2C9 (Homo sapiens, UniProt P11712)
[2] = molecular target: T3, Ubiquitin-conjugating enzyme E2 N (Homo sapiens, UniProt P61088); format: functional;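 further: Dose-response confirmation in a TR-FRET assay detecting UBC13-driven polyubiquitin chain formation, inhibition measured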
T3 sequence (P61088 whole entry): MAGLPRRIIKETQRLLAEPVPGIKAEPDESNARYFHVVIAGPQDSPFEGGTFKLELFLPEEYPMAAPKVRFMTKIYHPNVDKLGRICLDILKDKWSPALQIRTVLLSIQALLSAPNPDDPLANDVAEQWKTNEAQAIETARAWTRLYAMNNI

Fatty acid synthase = Fatty acid synthase (Homo sapiens, UniProt P49327); assay: inhibition of human FAS-TE enzyme activity – biochemical, kinetic fluorescence intensity, dose response (AID 624326); format: functional;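 further: rate of fluorescence rise from hydrolysis of a fluorogenic O-methyl fluorescein ester substrate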
[3] = off-target signal loss in HeLa-CEM21 co-culture – HeLa F-luc CTL cells, cherry-picked, counter-screen for HIV-1 Env fusion inhibitor project, dose response (AID 652040); format: functional, cell-based;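 further: potency for signal decrease marking cytotoxic or nonspecific inhibition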
[4] = blockers of HIV-1 envelope-mediated cell-cell fusion – cherry-pick, dose response (AID 652057); format: functional, cell-based
[5] = HIV-1 AD8 envelope cell-cell fusion blockers – cherry-pick, dose response (AID 652062); format: functional, cell-based;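 further: luciferase signal from cell-cell fusion driven by HIV-1 clade B AD8 Env; potency is for inhibitors of fusion seen as a drop in luminescence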
[6] = blockers of HIV-1 ZM109 envelope-driven cell-cell fusion – HeLa effector, CEM target cells, luciferase, cherry-pick, dose response (AID 652058); format: functional, cell-based;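 further: luciferase signal from HIV-1 Env mediated cell-cell fusion of effector and target cells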
[7] = molecular target: Voltage-dependent T-type calcium channel subunit alpha-1H (Homo sapiens, UniProt O95180); format: functional;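 further: channel activity triggered by adding a high calcium stimulation buffer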
[8] = molecular target: T4, Microphthalmia-associated transcription factor (Homo sapiens, UniProt O75030); assay: reducers of TRPM1 reporter luminescence, concentration series – cell-based, SK-MEL-5, cherry-picked, set 3, MITF inhibitor project, dose response (AID 493073); format: functional;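 further: SK-MEL-5 melanoma cells with luciferase driven by the MITF target TRPM1 promoter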
T4 sequence (O75030 whole entry): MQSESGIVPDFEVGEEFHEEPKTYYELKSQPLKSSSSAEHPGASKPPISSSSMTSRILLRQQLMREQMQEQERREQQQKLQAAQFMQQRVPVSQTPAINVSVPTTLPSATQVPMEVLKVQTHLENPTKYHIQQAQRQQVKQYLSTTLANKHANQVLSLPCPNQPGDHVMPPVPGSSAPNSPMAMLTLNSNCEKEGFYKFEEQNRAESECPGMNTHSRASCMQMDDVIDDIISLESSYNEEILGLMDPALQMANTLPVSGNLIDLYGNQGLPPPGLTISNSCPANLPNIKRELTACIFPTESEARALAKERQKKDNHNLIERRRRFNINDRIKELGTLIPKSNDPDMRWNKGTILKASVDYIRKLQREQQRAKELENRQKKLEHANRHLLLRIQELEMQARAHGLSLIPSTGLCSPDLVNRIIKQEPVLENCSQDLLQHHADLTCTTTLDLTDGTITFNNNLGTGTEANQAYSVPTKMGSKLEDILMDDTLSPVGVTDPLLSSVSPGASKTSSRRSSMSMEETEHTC

cells = format: functional
Cytochrome P450 2C19 = Cytochrome P450 2C19 (Homo sapiens, UniProt P33261); assay: Cytochrome panel assay with activity outcomes. Panel member name: p450-cyp2c19 Compounds with AC50 equal or less than 10 uM are considered active; format: functional; conditions: read-out: AC50
Chain of Cytochrome P450 2C19 (P33261 whole entry): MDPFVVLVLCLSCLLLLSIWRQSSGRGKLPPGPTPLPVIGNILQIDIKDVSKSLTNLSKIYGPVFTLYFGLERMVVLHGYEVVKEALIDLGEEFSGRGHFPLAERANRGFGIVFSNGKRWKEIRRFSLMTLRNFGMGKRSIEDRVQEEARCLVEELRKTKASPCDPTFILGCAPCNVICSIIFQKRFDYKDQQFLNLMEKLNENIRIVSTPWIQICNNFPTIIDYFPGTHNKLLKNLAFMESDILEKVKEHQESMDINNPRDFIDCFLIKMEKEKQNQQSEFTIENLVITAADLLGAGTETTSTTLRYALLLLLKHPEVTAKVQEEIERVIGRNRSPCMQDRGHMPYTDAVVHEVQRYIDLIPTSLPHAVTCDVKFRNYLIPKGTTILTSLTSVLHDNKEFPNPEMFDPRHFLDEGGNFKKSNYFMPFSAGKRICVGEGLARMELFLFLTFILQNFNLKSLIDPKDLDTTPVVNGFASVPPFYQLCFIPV

Chain of Cytochrome P450 2C9 (P11712 whole entry): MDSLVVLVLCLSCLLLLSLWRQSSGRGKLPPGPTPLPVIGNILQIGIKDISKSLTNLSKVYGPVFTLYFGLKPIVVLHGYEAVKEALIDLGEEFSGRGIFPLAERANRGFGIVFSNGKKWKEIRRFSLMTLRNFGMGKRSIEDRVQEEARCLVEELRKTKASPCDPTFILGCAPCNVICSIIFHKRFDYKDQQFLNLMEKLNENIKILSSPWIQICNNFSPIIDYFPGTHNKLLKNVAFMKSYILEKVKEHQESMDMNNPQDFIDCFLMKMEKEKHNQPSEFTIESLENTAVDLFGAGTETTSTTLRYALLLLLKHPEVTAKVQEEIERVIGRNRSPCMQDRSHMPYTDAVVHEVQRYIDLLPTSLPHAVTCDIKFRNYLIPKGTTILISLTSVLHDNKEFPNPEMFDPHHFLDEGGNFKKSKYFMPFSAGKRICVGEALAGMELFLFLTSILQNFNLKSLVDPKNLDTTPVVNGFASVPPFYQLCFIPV
Chain of Genome polyprotein (P29990 2492-3391 limits assumed): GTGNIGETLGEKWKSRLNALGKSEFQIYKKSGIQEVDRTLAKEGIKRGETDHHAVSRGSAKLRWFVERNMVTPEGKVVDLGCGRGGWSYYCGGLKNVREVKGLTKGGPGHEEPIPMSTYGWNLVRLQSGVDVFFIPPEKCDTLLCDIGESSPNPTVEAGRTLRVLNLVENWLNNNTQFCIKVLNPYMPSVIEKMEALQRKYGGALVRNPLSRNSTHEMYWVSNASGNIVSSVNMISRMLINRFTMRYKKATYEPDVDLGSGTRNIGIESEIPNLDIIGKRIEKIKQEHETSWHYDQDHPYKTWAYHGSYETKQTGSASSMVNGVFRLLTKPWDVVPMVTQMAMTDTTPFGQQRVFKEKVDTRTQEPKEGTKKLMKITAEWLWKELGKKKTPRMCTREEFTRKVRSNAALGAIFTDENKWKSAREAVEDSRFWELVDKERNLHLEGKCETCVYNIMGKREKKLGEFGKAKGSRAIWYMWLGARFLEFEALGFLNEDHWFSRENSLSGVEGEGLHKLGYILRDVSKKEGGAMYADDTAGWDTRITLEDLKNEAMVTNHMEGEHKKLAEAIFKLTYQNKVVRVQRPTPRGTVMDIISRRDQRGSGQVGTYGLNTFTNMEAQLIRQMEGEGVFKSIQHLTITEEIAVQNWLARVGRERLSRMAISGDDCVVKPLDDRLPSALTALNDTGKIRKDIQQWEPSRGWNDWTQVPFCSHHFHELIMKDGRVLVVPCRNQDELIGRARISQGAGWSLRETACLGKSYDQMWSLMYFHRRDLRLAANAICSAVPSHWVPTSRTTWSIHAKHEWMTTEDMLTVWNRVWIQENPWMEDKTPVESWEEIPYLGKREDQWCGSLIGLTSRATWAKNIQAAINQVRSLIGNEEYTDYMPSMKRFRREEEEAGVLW
Chain of Voltage-dependent T-type calcium channel subunit alpha-1H (O95180 whole entry): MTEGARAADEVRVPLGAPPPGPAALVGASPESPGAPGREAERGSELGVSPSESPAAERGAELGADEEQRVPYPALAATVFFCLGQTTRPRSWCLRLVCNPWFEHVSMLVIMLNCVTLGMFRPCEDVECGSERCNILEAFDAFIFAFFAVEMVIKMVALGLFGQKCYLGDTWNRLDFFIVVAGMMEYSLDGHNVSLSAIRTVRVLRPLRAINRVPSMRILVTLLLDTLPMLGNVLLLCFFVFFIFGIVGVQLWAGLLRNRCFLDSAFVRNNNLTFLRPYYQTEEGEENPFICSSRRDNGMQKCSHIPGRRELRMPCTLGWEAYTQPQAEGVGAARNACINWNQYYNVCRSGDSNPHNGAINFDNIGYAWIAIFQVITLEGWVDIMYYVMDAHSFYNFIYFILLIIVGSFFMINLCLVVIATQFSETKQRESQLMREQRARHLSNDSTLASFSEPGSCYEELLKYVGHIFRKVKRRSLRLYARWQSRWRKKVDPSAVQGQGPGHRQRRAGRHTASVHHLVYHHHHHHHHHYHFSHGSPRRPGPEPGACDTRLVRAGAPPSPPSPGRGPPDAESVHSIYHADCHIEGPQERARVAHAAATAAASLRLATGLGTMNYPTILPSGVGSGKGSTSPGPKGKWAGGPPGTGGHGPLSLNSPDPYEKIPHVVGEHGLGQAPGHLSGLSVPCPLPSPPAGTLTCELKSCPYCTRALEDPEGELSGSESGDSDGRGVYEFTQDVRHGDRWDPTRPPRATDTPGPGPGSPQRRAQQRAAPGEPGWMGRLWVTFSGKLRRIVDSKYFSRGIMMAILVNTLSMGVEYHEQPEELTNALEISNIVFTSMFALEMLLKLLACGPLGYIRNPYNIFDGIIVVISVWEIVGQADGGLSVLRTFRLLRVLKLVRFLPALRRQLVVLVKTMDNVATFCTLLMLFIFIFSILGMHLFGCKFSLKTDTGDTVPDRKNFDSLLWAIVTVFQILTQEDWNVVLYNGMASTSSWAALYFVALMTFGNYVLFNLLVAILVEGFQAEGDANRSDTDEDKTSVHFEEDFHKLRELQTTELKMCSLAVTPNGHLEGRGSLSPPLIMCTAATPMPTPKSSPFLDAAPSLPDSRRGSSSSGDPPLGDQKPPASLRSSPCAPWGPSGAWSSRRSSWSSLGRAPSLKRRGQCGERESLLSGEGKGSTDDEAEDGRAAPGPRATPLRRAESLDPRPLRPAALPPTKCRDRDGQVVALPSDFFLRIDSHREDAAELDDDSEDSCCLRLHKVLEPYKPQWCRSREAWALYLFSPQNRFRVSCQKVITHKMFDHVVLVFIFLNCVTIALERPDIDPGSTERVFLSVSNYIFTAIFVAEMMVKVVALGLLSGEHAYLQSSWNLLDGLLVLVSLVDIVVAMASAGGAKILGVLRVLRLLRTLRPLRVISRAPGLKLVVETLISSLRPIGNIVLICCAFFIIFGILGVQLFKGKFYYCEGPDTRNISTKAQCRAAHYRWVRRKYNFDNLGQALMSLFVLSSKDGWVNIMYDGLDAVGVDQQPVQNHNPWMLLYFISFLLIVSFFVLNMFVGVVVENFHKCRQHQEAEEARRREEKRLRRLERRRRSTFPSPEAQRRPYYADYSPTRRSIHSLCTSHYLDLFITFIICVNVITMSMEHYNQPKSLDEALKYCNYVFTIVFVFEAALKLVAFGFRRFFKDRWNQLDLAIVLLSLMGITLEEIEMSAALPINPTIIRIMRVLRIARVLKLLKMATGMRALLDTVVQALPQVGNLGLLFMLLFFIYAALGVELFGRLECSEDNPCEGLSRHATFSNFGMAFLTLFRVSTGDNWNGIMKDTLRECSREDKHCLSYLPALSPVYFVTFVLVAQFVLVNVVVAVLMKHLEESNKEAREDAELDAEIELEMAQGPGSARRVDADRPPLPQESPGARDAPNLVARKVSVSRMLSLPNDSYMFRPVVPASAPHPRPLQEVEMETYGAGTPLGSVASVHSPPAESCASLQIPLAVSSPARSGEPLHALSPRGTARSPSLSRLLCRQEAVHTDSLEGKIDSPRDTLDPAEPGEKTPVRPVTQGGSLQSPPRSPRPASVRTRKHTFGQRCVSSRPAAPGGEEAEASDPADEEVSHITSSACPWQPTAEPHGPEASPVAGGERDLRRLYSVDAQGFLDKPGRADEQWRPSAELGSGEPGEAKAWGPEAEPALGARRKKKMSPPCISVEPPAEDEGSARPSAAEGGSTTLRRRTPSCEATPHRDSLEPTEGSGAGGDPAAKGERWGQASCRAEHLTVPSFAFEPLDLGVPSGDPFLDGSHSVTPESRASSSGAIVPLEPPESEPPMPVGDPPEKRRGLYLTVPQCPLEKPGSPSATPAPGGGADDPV

COc1ccc(OC)c(N2C(=O)C(Cl)=C(N3CCOCC3)C2=O)c1
AC50 [1]: 145 µM (active)
IC50 (Genome polyprotein): 18.1 µM (active)
EC50 (Protein RecA): 26.3 µM (active)

C=CCSC[C@@H]1Nc2cc(Cl)c(S(N)(=O)=O)cc2S(=O)(=O)N1
AC50 (Cytochrome P450 2C9): inconclusive

CCOc1ccc(N(C(=O)c2snc(C(N)=O)c2N)C(C(=O)NCC2CCCO2)c2ccc(C)o2)cc1 (stereo not drawn)
IC50 [2]: > 20 µM (inactive)

NC(=NOC(=O)CCCc1ccccc1)c1cccc([N+](=O)[O-])c1
IC50 (Fatty acid synthase): 11.6 µM (active)

CCOC(=O)c1c(CSc2ccsc2)n(C)c2cc(Br)c(O)c(CN(C)C)c12
AC50 [3]: 2.45 µM (active)
AC50 [4]: 1.3 µM (active)
AC50 [5]: 4.04 µM (active)
AC50 [6]: 2.34 µM (active)

CON(C)c1nc(OCCNC(=O)OCc2ccc(Cl)cc2C)nc(N(C)C)n1
AC50 [3]: 2.32 µM (active)
AC50 [4]: 1.29 µM (active)
AC50 [5]: 0.357 µM (active)
AC50 [6]: 2.22 µM (active)

O=[N+]([O-])c1cccc(/C=C/c2nc(O)nc(O)c2[N+](=O)[O-])c1
IC50 (Genome polyprotein): 72.8 µM (active)

CCN(Cc1ccccc1)C(=O)CCc1nc(-c2ccc(C)cc2)no1
EC50 [7]: 4.8 µM (active)

Cc1cccc2cc(=O)[nH]c(C)c12
AC50 (Cytochrome P450 2C9): inconclusive

CCC(C)(C)NC(=O)CN(C(=O)c1snc(C(N)=O)c1N)c1ccc2c(c1)OCCO2
IC50 [2]: > 20 µM (inactive)

O=C(CCl)N(Cc1cc(O)nc2ccccc12)c1ccccc1
AC50 [1]: 5.06 µM (active)
EC50 (Protein RecA): 2.38 µM (active)
AC50 [8]: 5.42 µM (active)

C#CCOc1ccc(/C=C2/C(=O)N(c3cccc(C(=O)O)c3)N=C2C)cc1OC
AC50 [1]: 2.41 µM (active)
IC50 (Genome polyprotein): 8.42 µM (active)
EC50 (Protein RecA): 2.01 µM (active)

CCC(C)n1nnc2c(=O)oc3ccccc3c21 (stereo not drawn)
AC50 (Cytochrome P450 2C9): inconclusive
IC50 (cells): 5.77 µM (active)
AC50 (Cytochrome P450 2C19): 8.91 µM (inconclusive)

NC(=S)N=Nc1c(O)n(CCCl)c2ccc(Br)cc12
IC50 [2]: > 20 µM (inactive)
